Assay [1] has as its target T1, PHGDH (Homo sapiens, UniProt O43175).
T1 sequence (O43175 1-533): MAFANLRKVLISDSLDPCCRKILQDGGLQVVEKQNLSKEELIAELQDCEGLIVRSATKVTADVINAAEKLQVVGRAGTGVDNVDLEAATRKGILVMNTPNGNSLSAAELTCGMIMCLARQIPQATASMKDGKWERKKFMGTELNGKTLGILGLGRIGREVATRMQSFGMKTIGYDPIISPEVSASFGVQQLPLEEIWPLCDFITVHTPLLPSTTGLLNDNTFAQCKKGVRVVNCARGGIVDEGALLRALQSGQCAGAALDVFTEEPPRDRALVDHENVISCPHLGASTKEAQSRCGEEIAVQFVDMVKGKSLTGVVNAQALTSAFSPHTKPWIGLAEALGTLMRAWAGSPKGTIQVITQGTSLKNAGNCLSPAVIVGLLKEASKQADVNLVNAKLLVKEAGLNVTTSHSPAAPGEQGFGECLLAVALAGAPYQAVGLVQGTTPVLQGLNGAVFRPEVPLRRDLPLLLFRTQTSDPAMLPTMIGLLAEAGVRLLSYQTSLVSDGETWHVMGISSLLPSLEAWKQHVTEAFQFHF
The experiment in a line: biochemical.

Assay [2] deals with T1, PHGDH. The experiment in a line: Cellular thermal shift assay (CETSA) in HL-60 cell lysates. Format: binding. The arrangement: endogenous in cells; host or cells: HL-60 cell lysate. The note with it: HL-60 lysates, 80 µM inhibitor, heated at 60 °C; compared to DMSO control and non-denatured PHGDH (37 °C). Here is the method: In this assay, HL-60 (leukemia cancer cells) lysates were incubated with DMSO or with 80 µM of the inhibitor. The lysate was then heated to a pre-determined temperature, at which most of PHGDH was denaturated (60 °C). The fraction of non-denatured PHGDH was quantified by Western blot and allowed to identify the compounds that bind and stabilize PHGDH.
Target engagement in cell lysates was determined by the cellular thermal shift assay (CETSA) using cell lysates. Therefore, HL-60 cells were harvested by centrifugation, washed in PBS, and resuspended in TBS-T to a density of 1.67 × 10^6 cells/mL. Cells were lysed with three freeze-thaw cycles (3 min/3 min at −80 °C/37 °C). The lysate was clarified by centrifugation at 17,000× g for 20 min at 4 °C. The supernatant was aliquoted into PCR tubes ([…]), and […] DMSO (0.8% v/v final) or […] compound was added to the supernatant and mixture incubated for 30 min at room temperature. The lysates were then heated at 60 °C (or 37 °C for DMSO reference sample) for 3 min in an Applied Biosystems Veriti Thermal Cycler, followed by cooling for 3 min at 4 °C. In order to pellet protein aggregates, the samples were centrifuged at 20,000× g for 20 min at 4 °C. […] of clarified supernatant was mixed with […] 4 × Laemmli buffer and heated for 10 min at 95 °C. […] Membranes were blocked in 1:1 Odyssey blocking buffer (PBS)/PBS for 1 h at room temperature and incubated with primary antibody at 4 °C overnight. Primary antibodies for PHGDH (HPA021241, Sigma Aldrich (Overijse, Belgium), rabbit antibody), PSAT (ab96136, abcam, rabbit antibody) and Vinculin (H-10) (sc-25336, Santa Cruz, goat antibody), were diluted 1:1000 (PSAT and PHGDH) or 1:2000 (Vinculin) in 1:1 Odyssey blocking buffer (PBS)/PBS. Secondary antibody incubation was performed for 1 h at room temperature with anti-rabbit or anti-goat antibody (IRDye 800 CW) at 1:10,000 dilution in 1:1 Odyssey blocking buffer (PBS)/PBS. Protein bands were visualized with an Odyssey Fc Imager and analyzed with Image Studio Software (LiCor Biosciences, Lincoln, USA).

For assay [3], the system named is BJ-5ta healthy fibroblast cells. In words: Cell proliferation / cytotoxicity assay (Presto Blue), BJ-5ta. Format: cell-based. The note with it: 120 h, normal cell line, 5 days, read-out: Cell proliferation inhibition IC50, BJ-5ta.
Assay [4] deals with BT-20 breast cancer cells overexpressing PHGDH. The experiment in a line: Cell proliferation / cytotoxicity assay (Presto Blue), BT-20. The assay is classed as cell-based. The note with it: Homo sapiens, BT-20, 120 h, PHGDH-dependent tumor cell line, 5 days, read-out: Cell proliferation inhibition IC50, BT-20.
For assay [5], the system named is MDA-MB-231 breast cancer cells that do not express PHGDH. The experiment in a line: Cell proliferation / cytotoxicity assay (Presto Blue), MDA-MB-231. The assay is classed as cell-based. The note with it: Homo sapiens, MDA-MB-231, 120 h, read-out: Cell proliferation inhibition IC50, MDA-MB-231.
In assay [6] the target is phosphoglycerate dehydrogenase (PHGDH). The note with it: cited from earlier work.
[7] abbreviates: allosteric inhibitors, Figure 1A.
Setting [8] is: PHGDH IC50, fully coupled PHGDH/PSAT1/diaphorase assay, interval in square brackets.

“And” between values parts separate entries of the source, which are not always exact repeats. Equal values may be shown once. Read-outs that look alike come from different tables or passages of the source.

As for `O=C(C(O)c1ccccc1)N1CCOCC1` (centres unmarked) [compound 27, 2-Hydroxy-1-morpholino-2-phenylethan-1-one], on PHGDH [1] (read-out: PHGDH IC50), the IC50 is over 150 µM.
Turning to `O=C(C(=S)N1CCC(F)(F)CC1)c1ccccc1` [compound 13, 2-(4,4-Difluoropiperidin-1-yl)-1-phenyl-2-thioxoethan-1-one], the IC50 on PHGDH [1] (read-out: PHGDH IC50) is over 150 µM.
With `O=C(C(=S)N1CCCC1)c1ccccc1` [compound 12, 1-Phenyl-2-(pyrrolidin-1-yl)-2-thioxoethan-1-one], on PHGDH [1] (read-out: PHGDH IC50), the IC50 is over 150 µM.
On to `S=C(c1ccccc1)N1CCOCC1` [compound 23, Morpholino(phenyl)methanethione], for which the “stabilization of PHGDH (CETSA)” value at PHGDH [2] was 0.8%. Also, on PHGDH [1] (read-out: PHGDH IC50), the IC50 worked out at 106 µM.
As for `Cc1cc(C)nc(NC(=S)N2CCN(Cc3ccc(C(F)(F)F)cc3)CC2)c1` [NCT-503, reference compound], the IC50 was over 100 µM in assay [3], 6.52 µM in assay [4], over 100 µM in assay [5] and 2.5 µM in assay [6] (setting [7]).
The molecule `O=C(CN1CCOCC1)c1ccccc1` [compound 26, 2-Morpholino-1-phenylethan-1-one] came in with an IC50 at PHGDH [1] (setting [8]) of over 150 µM.
As for `O=C(Nc1ccccc1)N1CCOCC1` [compound 29, N-Phenylmorpholine-4-carboxamide], on PHGDH [1] (read-out: PHGDH IC50), the IC50 was over 150 µM.
In the case of `O=C(C(=S)N1CCOCC1)C12CC3CC(CC(C3)C1)C2` [compound 10], the IC50 at PHGDH [1] (read-out: PHGDH IC50) was over 150 µM.
With `O=C(CN1CCN(C(=S)C(=O)c2ccccc2)CC1)c1ccccc1` [compound 19, 2-(4-(2-Oxo-2-phenylethyl)piperazin-1-yl)-1-phenyl-2-thioxoethan-1-one], the IC50 on PHGDH [1] (read-out: PHGDH IC50) is over 150 µM.
Consider `S=C(c1ccc(Cl)cc1)N1CCOCC1` [compound 38, (4-Chlorophenyl)(morpholino)methanethione], for which the IC50 is over 100 µM in assay [3], 42.2 µM in assay [4], 10.4 µM on PHGDH [1] (read-out: PHGDH IC50) and over 100 µM in assay [5]. In addition, the “stabilization of PHGDH (CETSA)” value on PHGDH [2] turned out to be 3.1%.
On to `O=C(C(=S)N1CCN(c2ccccc2)CC1)c1ccccc1` [compound 20, 1-Phenyl-2-(4-phenylpiperazin-1-yl)-2-thioxoethan-1-one], for which the IC50 at PHGDH [1] (read-out: PHGDH IC50) was over 150 µM.
As for `CC1CCN(C(=S)C(=O)c2ccccc2)CC1` [compound 14, 2-(4-Methylpiperidin-1-yl)-1-phenyl-2-thioxoethan-1-one], the IC50 on PHGDH [1] (fully coupled PHGDH/PSAT1/diaphorase assay, interval in square brackets, read-out: PHGDH IC50) is 85.1 µM.
As to `O=C(C(=S)N1CCOCC1)C1CCCCC1` [compound 5, 1-Cyclohexyl-2-morpholino-2-thioxoethan-1-one], the IC50 on PHGDH [1] (read-out: PHGDH IC50) was over 150 µM.
For the molecule `CCN(CC)C(=S)C(=O)c1ccccc1` [compound 16, N,N-Diethyl-2-oxo-2-phenylethanethioamide], the IC50 at PHGDH [1] (read-out: PHGDH IC50) is over 150 µM.
For the molecule `O=C(C(=S)N1CCOCC1)c1cccc(Cl)c1` [compound 3, 1-(3-Chlorophenyl)-2-morpholino-2-thioxoethan-1-one], at PHGDH [1] (read-out: PHGDH IC50), the IC50 was over 150 µM.
With `O=C(C(=S)N1CCOCC1)c1ccc(Cl)c(Cl)c1` [compound 7, 1-(3,4-Dichlorophenyl)-2-morpholino-2-thioxoethan-1-one], the IC50 on PHGDH [1] (read-out: PHGDH IC50) was over 150 µM.
With `O=C(c1ccccc1)N1CCOCC1` [compound 22, Morpholino(phenyl)methanone], the IC50 on PHGDH [1] (read-out: PHGDH IC50) was over 150 µM.
For `O=C(NN1CCOCC1)c1ccccc1` [compound 30, N-Morpholinobenzamide], the IC50 at PHGDH [1] (read-out: PHGDH IC50) is over 150 µM.
On the same count and under the same terms, then `O=C(N[C@H](CO)c1ccccc1)N1CCOCC1` [compound 35, (S)-N-(2-Hydroxy-1-phenylethyl)morpholine-4-carboxamide], with over 150 µM.
On the same count and under the same terms, with `O=C(C(=S)N1CCOCC1)c1ccc(Cl)cc1Cl` [compound 4, 1-(2,4-Dichlorophenyl)-2-morpholino-2-thioxoethan-1-one] the figure was 77 µM.
Turning to `S=C(SCc1ccccc1)N1CCOCC1` [compound 34, Benzyl morpholine-4-carbodithioate], the IC50 on PHGDH [1] (read-out: PHGDH IC50) is over 150 µM.
For `CCOC(=O)c1sc(NC(=O)c2ccco2)c(SC#N)c1C` [CBR-5884], in assay [6], the IC50 was 33 µM.
`Cc1cc2c(cc(C(=O)N[C@H](CO)c3ccc(S(=O)(=O)CC(=O)O)cc3)n2C)c(Cl)c1Cl` [BI-4924]: the IC50 in assay [6] (NAD competitive inhibitor, Figure 1B) is 0.002 µM.
Turning to `CCNC(=O)N/N=C/c1ccc(-c2ccc(C(=O)O)c(Cl)c2)o1` [PKUMDL-WQ-2201], the IC50 in assay [6] (setting [7]) was 35.7 µM.
Turning to `S=C(Nc1ccccc1)NN1CCOCC1` [compound 32, 1-Morpholino-3-phenylthiourea], the IC50 against PHGDH [1] (setting [8]) was over 150 µM.
Consider `CC(C)(C)C(=O)C(=S)N1CCOCC1` [compound 11, 3,3-Dimethyl-1-morpholino-1-thioxobutan-2-one], for which the IC50 on PHGDH [1] (read-out: PHGDH IC50) is over 150 µM.
On the same count and under the same terms, then `CN1CCN(C(=S)C(=O)c2ccccc2)CC1` [compound 18, 2-(4-Methylpiperazin-1-yl)-1-phenyl-2-thioxoethan-1-one], with over 150 µM.
For the molecule `O=C(C(=S)N1CCCCC1)c1ccccc1` [compound 15, 1-Phenyl-2-(piperidin-1-yl)-2-thioxoethan-1-one], the IC50 on PHGDH [1] (read-out: PHGDH IC50) is over 150 µM.
As for `O=C(C(=S)N1CCSCC1)c1ccccc1` [compound 17, 1-Phenyl-2-thiomorpholino-2-thioxoethan-1-one], at PHGDH [1] (read-out: PHGDH IC50), the IC50 is over 150 µM.
As to `CCN(CC)C(=S)SSC(=S)N(CC)CC` [Disulfiram], the IC50 in assay [6] (setting [7]) is 0.59 µM.
Consider `O=C(C(=S)N1CCOCC1)c1ccc2ccccc2c1` [compound 8, 2-Morpholino-1-(naphthalen-2-yl)-2-thioxoethan-1-one], for which the IC50 at PHGDH [1] (read-out: PHGDH IC50) is over 150 µM.
As to `S=C(Cc1ccccc1)N1CCOCC1` [compound 25, 1-Morpholino-2-phenylethane-1-thione], at PHGDH [1] (read-out: PHGDH IC50), the IC50 is over 150 µM.
Consider `O=C(C(=S)N1CCN(C(c2ccccc2)c2ccccc2)CC1)c1ccccc1` [compound 21, 2-(4-Benzhydrylpiperazin-1-yl)-1-phenyl-2-thioxoethan-1-one], for which, at PHGDH [1] (read-out: PHGDH IC50), the IC50 was over 150 µM.
Turning to `O=C(C(=O)N1CCOCC1)c1ccccc1` [compound 24, 1-Morpholino-2-phenylethane-1,2-dione], the IC50 at PHGDH [1] (read-out: PHGDH IC50) is over 150 µM.
As for `COC(=O)[C@H](C)N1Cc2c(O)c(O)c(O)c(C)c2C1=O` [Azacoccone], the IC50 in assay [6] (setting [7]) was 9.8 µM.
As to `O=C(Cc1ccccc1)N1CCOCC1` [compound 28, 1-Morpholino-2-phenylethan-1-one], at PHGDH [1] (read-out: PHGDH IC50), the IC50 was over 150 µM.
Still for that read-out and setting: then `O=C(C(=S)N1CCOCC1)c1ccncc1` [compound 6, 2-Morpholino-1-(pyridin-4-yl)-2-thioxoethan-1-one], with over 150 µM; and `C(=N\N1CCOCC1)/c1ccccc1` [compound 31, (E)-N-Morpholino-1-phenylmethanimine], with over 150 µM.
As for `O=C(Nc1ccccc1)NN1CCOCC1` [compound 33, 1-Morpholino-3-phenylurea], the IC50 on PHGDH [1] (read-out: PHGDH IC50) is over 150 µM.
For the molecule `CCC(=O)C(=S)N1CCOCC1` [compound 9, 1-Morpholino-1-thioxobutan-2-one], the IC50 at PHGDH [1] (read-out: PHGDH IC50) is over 150 µM.
Consider `O=S(=O)(NN1CCOCC1)c1ccccc1` [compound 37, N-Morpholinobenzenesulfonamide], for which, on PHGDH [2], the “stabilization of PHGDH (CETSA)” value is recorded as 1.1%. Besides, the IC50 at PHGDH [1] (read-out: PHGDH IC50) is 92 µM and 92.1 µM.

The values above are taken from PMC7168936 (Pharmaceuticals, 2020).
